Experiments:
[1] = target: methionine-aminopeptidase-2 (Homo sapiens, UniProt P50579); experiment: Thermal shift in human K562 cell lysate, Western blot; type: binding
Procedure: (§1) Studies were done on cells from two different systems: a) intact cow liver biopsies incubated with TNP-470 and b) human cultured cells incubated with TNP-470. […] After treatment with or without the inhibitor, the samples were prepared and subjected to an array of increasing temperatures. The precipitated protein fraction was pelleted by means of centrifugation and the supernatant from each temperature step was analysed on gels and by Western blot. Melting temperatures of proteins treated with TNP-470 were compared to those of untreated samples.
(§2) Lysate was prepared for cultured human cells (K562) and cow liver samples by disruption on ice in hypotonic buffer and with homogenisation. The suspensions were freeze-thawed multiple times and all insoluble aggregates and cell debris were pelleted by centrifugation after completed lysis. The lysate of each cell type was divided into two aliquots, where one was supplemented with TNP-470 (dissolved in pure DMSO) and the other with an equivalent volume of pure DMSO. […]
(§3) Next, a series of temperatures were applied to different samples ranging between +56° C. to +88° C. with 2 or 4° C. increments and a 3 minute hold at each step. […] The signal from the bound secondary antibody was detected by chemiluminescense and recorded with a CCD camera. […]

[2] = target: T1, methionine-aminopeptidase-2 (Bos taurus, UniProt Q3ZC89); experiment: Thermal shift in cow liver lysate, Western blot; type: binding
T1 construct: Lysate was prepared for cultured human cells (K562) and cow liver samples; from tissue; host or cells: cow liver
T1 sequence (Q3ZC89 whole entry): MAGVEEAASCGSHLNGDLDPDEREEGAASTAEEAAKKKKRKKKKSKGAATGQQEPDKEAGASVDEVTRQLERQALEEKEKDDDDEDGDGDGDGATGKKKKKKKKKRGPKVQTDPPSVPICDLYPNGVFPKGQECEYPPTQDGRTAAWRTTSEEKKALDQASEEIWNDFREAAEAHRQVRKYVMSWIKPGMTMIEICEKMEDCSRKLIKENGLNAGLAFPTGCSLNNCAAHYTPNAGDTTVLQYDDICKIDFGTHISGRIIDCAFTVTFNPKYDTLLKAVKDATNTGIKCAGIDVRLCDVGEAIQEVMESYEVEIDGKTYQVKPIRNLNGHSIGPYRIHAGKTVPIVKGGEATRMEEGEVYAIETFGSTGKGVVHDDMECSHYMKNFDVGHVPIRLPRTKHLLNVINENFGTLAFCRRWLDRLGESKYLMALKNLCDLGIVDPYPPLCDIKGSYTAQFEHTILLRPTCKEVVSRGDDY
Procedure: as §1, §2, §3

[3] = target: T2, human soluble PIK3C3 protein (Homo sapiens, UniProt Q8NEB9); experiment: Thermal shift (lysis/filtration blot) in E. coli cells overexpressing PIK3C3 construct; type: cell-based; conditions: 1 mM Compound 15e or 500 μM Wortmannin, without ligand ca +55°
T2 construct: expressed in transfected cells; host or cells: E. coli
T2 sequence (Q8NEB9 whole entry): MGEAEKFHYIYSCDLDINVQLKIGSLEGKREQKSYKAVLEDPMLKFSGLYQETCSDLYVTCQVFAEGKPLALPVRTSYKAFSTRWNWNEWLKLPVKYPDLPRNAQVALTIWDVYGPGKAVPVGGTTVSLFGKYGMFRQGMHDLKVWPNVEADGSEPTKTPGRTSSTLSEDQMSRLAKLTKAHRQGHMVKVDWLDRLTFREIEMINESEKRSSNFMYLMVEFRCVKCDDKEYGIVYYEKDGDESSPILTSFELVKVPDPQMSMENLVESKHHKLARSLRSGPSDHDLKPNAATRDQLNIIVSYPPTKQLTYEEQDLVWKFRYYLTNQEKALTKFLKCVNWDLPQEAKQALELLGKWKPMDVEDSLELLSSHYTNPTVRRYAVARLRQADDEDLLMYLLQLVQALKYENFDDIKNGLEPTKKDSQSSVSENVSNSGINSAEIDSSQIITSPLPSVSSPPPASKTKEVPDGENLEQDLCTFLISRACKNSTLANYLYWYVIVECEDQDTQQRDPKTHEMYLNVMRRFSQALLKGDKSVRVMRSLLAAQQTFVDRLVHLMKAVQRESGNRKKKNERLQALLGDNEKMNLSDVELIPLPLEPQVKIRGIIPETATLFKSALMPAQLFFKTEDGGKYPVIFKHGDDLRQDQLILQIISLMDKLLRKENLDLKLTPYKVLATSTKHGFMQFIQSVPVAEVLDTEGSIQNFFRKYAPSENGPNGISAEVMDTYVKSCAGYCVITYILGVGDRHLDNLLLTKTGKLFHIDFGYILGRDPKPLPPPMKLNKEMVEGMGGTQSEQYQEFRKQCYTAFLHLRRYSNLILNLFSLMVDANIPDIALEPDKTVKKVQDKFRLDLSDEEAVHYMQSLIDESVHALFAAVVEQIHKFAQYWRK
Source text: An expression construct of human soluble PIK3C3 protein in an expression vector with N-terminal His-tag was used to investigate a possible increase in melting temperature of the PIK3C3 construct after addition and binding of either of two PIK3C3 specific inhibitors; Wortmannin and Compound 15e. After treatment with or without one of the two inhibitors the cells expressing the PIK3C3 constructs were exposed to a panel of increasing temperatures and after each temperature step the cells expressing the proteins were spotted onto a “lysis/filtration sandwich” soaked in lysis buffer. By using this lysis/filtration step on the “lysis/filtration sandwich” the soluble protein (up to the construct's specific melting temperature) could be detected on a capturing nitrocellulose membrane as dark spots, whereas precipitated protein (i.e., above its specific melting temperature) was not able to pass through the filter membrane and could therefore not be detected. Melting temperatures of constructs treated with Compound 15e or Wortmannin were compared with those of untreated samples. […]

p38α [4] = target: T3, p38α (Homo sapiens, UniProt Q16539); experiment: Homogeneous AlphaScreen-based CETSA screen in HL-60 cells; type: cell-based; conditions: both screen concentrations, 10 and 50 μM, 50° C. 3 min
T3 construct: host or cells: HL-60
T3 sequence (Q16539 whole entry): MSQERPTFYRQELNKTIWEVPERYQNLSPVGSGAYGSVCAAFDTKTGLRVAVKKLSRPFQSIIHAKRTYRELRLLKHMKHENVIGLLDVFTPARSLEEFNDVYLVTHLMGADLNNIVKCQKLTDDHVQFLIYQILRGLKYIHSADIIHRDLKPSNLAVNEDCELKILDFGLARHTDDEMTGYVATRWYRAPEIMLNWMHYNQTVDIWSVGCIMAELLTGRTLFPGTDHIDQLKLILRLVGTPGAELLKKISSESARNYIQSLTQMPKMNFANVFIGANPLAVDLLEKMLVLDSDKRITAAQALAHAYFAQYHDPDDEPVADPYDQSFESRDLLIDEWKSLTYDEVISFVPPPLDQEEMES
Procedure: HL-60 cells were expanded in cell culture medium to a density of approximately 1.5-2 million cells/ml. The cell suspension was collected and the cells transferred to 15 ml conical tubes. The tubes were then centrifuged at 300 g for 3 mins at room temperature and the media was discarded. The cell pellet was resuspended in media to a cell density of about 30 million cells/ml. […] The plates are sealed and stored. The Echo 550 acoustic liquid dispenser was used to place 20 nl of the 10 mM DMSO stock solution in each well of four separate Twin tec PCR plates in columns 1-11. […] The plates were shaken every 10 mins.
The plates were placed in a thermal cycler and heated for 3 mins at 50° C. and were then removed and placed in an aluminium block for 3 mins at room temperature.
140 μl of 1× PerkinElmer lysis buffer was added to all wells and the wells were mixed. 4 μl of the samples were transferred to quadrant one of the 384-well ProxiPlate. This was done for all 96-well plates. […] The chemiluminescence was read with a Envision plate reader and evaluated using data processing software as described previously.
The feasibility of applying the homogeneous assay for screen purposes was assessed by testing the homogeneous assay protocol to determine how this responds to the presence of a small set of test compounds taken from a diversity library. […]

p38α [5] = target: T3, p38α; experiment: CETSA melting curve in HL-60 cells; type: cell-based; conditions: for apparent Tagg value (average±s.d.): 20 μM compound
Procedure: HL60 cells were expanded in cell culture medium to about 2 million cells per ml, where approximately 120 million cells were required to determine four melting curves. 15 ml of the 2 million HL60 cells/ml of suspension were added to four separate T75 flasks. […] The same volume of DMSO was added to the remaining flask as a control. The cell suspensions were mixed gently by pipetting. […] The cell suspension was then collected and cells were transferred to 15 ml conical tubes. Cell numbers were counted and cell viability assessed. The conical tubes were then centrifuged at 300 g for 3 minutes at room temperature to pellet the cells and the culture medium was discarded.
Cell pellets were then resuspended with 15 ml PBS and centrifuged for 3 minutes at 300 g at room temperature. 1 ml of PBS supplemented with protease inhibitors was added to each tube and the pellet resuspended. Each cell suspension was distributed into ten different 0.2 ml PCR tubes with 100 μl of cell suspension in each tube, with each of the ten tubes to be heated at a different temperature.
Immediately after hating, the tubes were removed and incubated at room temperature for 3 minutes. The samples were then snap-frozen.
The tubes were vortexed after being thawed and the cell lysates kept on ice after the last thawing. The cell lysates were then centrifuged at 20000 g for 20 minutes at 4° C. to pellet the cell debris. Finally, 90 μl of lysate was then transferred to a new tube for analysis.
Analysis was carried out using the alphascreen format. […] 4 μl of each solution was transferred from the PCR tubes to a separate well of a 384-well ProxiPlate. 5 μl of acceptor beads were added and the plate sealed with a Thermowell plate seal and agitated for 5 minutes at 500 rpm. The plate was then incubated for 2 hours at room temperature. 2 μl of donor beads were then added an the plate sealed and centrifuged at 100 g at room temperature for 10 seconds. The plate was then agitated for 5 minutes at 500 rpm. The plate was incubated at room temperature for at least 2 hours and chemiluminescence read using an Envision plate reader. […]

p38α [6] = target: T3, p38α; experiment: Isothermal dose-response fingerprint (ITDRF CETSA) in HL-60 cells; type: cell-based; conditions: HL-60 cells heated at 50° C.; western blot and AlphaScreen
Procedure: Thus, in this method, HL-60 cells were expanded in cell culture medium to a cell density of 1-2 million cells/ml using standard cell culture. The cell suspension was collected and transferred to 15 ml conical tubes. The conical tubes were centrifuged at 300 g for 3 minutes at room temperature and the medium discarded. The cell pellet was resuspended in fresh media to provide a cell density of approximately 40 million cells/ml. […] 100 DMSO was placed in columns 2-12. The stock solutions were serially diluted by transferring 50 from columns 1 to 2, mixing and then by continuing this process one column at a time until column 11, where a final 50 is removed and discarded. Column 12 acted as a control. A second plate was prepared as a backup by splitting the serial dilutions into the second plate. All the serially diluted solutions were diluted 50 fold by adding cell culture media. 5 μl of all diluted compound solutions were then transferred to a Twin.tec PCR plate. […] The plate was shaken every 10 minutes.
The PCR plate was then incubated in a thermal cycler (Techne) and heated for 3 minutes at 50° C. The plate was then placed in an aluminium block for 3 minutes to ensure consistent cooling.
Detection was then carried out using the AlphaScreen method. […] The Luminescence was read using an Envision plate reader and data software (e.g. GraphPad Orism) was used to evaluate the luminescence data. […]

[7] = target: V600E variant B-raf protein (Homo sapiens, UniProt P15056, V600E); conditions: A375 lysate
Chain of V600E variant B-raf protein (P15056 whole entry V600E): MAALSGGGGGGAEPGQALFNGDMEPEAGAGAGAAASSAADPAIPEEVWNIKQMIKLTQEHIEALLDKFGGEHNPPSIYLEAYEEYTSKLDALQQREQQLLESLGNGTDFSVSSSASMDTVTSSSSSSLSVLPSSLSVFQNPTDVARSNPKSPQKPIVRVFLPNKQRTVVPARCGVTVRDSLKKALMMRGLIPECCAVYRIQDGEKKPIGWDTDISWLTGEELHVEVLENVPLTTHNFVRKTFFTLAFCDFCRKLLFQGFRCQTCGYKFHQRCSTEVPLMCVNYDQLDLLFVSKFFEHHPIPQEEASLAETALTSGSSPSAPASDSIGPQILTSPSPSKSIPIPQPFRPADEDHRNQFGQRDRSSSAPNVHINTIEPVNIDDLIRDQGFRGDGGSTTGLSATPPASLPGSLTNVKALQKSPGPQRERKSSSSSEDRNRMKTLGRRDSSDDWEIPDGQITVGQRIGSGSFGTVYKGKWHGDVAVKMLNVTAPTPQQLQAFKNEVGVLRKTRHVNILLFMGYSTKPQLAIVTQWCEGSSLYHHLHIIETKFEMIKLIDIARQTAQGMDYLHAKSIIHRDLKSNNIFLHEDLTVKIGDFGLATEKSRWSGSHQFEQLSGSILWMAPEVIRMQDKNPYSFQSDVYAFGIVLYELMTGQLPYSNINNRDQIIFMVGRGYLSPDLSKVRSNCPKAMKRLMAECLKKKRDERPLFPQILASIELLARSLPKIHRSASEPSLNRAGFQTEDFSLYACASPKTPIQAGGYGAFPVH
Procedure: (§4) Lysate was prepared from cultured human A375 cells containing the V600E substitution in B-raf and K562, containing the wild type version thereof. Cells were disrupted on ice in hypotonic buffer and with homogenisation. The suspensions were freeze-thawed multiple times and all insoluble aggregates and cell debris were pelleted by centrifugation after completed lysis. The supernatants containing optically clear cytosolic fraction were each aliquoted into two tubes where each tube contained either the ligand SB590885 dissolved in DMSO or pure DMSO for control. The samples were incubated and subsequently aliquoted into 8-tube PCR strips in fractions of 50 microliters. A series of temperatures were applied to the different samples ranging between +44° C. to +62° C. with 2° C. increments and a 3 minute hold at each temperature. Following heating, the samples were cooled and the precipitated protein pelleted by centrifugation. 20 microliter of each supernatant was removed and supplemented with gel loading buffer and fully denatured by heating. The samples were loaded on a separating gel, which after full run time was blotted onto a nitrocellulose membrane. The membrane was washed and blocked with blocking reagent and probed with primary and secondary antibodies. The signal from the bound secondary antibody was detected by chemiluminescense and recorded with a CCD camera. […]

wild-type B-raf protein = wild-type B-raf protein (Homo sapiens, UniProt P15056); conditions: K562 lysate
Chain of wild-type B-raf protein (P15056 whole entry): as the sequence (P15056 whole entry V600E) above, with E600V counted along it
Procedure: as §4

[8] = target: T4, thymidylate synthase (TS) (Homo sapiens, UniProt P04818); experiment: Thermal shift in A549 cell lysate, Western blot, TS; type: binding; conditions: ligand at 10 times the described IC50
T4 construct: Lysate was prepared from cultured human adenocarcinoma cells (A549); endogenous in cells; host or cells: A549
T4 sequence (P04818 2-313 limits assumed): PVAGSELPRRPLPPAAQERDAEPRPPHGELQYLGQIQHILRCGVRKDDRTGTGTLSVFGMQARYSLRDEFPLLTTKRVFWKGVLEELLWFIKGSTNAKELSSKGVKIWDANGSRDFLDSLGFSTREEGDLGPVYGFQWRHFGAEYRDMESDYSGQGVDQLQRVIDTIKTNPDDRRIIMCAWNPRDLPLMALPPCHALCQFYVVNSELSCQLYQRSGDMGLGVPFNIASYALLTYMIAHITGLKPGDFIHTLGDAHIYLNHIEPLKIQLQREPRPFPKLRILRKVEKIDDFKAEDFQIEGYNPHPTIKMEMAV
Source text: Cells were disrupted on ice in hypotonic buffer and with homogenisation. The suspensions were freeze-thawed multiple times and all insoluble aggregates and cell debris were pelleted by centrifugation after completed lysis.
The signal from the bound secondary antibody was detected by chemiluminescense and recorded with a CCD camera. The intensities were plotted to visualize the changes in melting temperature following ligand treatment.

Chain of methionine-aminopeptidase-2 (Homo sapiens, UniProt P50579) (P50579 whole entry): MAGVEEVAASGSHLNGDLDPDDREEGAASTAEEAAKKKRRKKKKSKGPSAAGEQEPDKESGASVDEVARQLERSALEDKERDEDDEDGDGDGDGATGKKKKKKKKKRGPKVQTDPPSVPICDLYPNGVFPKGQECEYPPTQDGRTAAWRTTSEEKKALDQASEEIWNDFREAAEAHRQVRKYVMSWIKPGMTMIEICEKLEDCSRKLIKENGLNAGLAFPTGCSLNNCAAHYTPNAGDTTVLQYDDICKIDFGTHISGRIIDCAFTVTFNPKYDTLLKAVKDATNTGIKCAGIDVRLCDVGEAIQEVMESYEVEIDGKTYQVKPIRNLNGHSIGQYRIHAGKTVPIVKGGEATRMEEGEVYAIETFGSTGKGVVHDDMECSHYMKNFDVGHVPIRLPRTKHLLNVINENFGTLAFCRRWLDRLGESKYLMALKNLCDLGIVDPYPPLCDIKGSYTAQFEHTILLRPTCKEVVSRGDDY

## CO[C@@H]1[C@H](OC(=O)NC(=O)CCl)CC[C@]2(CO2)[C@H]1[C@@]1(C)O[C@@H]1CC=C(C)C [TNP-470]
[1]
  shift in melting temperature: 18 °C
[1]; without ligand 62° C.
  melting temperature after addition of ligand: 80 °C
[2]
  shift in melting temperature: 14 °
[2]; without ligand 66° C.
  melting temperature after addition of ligand: 80 °C

## Oc1cccc(-c2nc(N3CCOCC3)c3sccc3n2)c1 [Compound 15e, 3-[4-(4-Morpholinyl)thieno[3,2-d]pyrimidin-2-yl]-phenol]
[3]
  melting temperature after addition of inhibitor: ~58 °C

## Cc1cnc(Nc2ccc(F)cc2Cl)nc1-c1c[nH]c(C(=O)N[C@H](CO)c2cccc(Cl)c2)c1 [ERK 11e]
p38α [4]
  screen outcome (increase of the AlphaScreen signal vs DMSO-only controls): cannot be distinguished from the rest of the inactive compounds
p38α [5]; 20 μM
  shift of the apparent Tagg (response): lack of a substantial response
p38α [6]
  thermal stabilization of p38α within the tested concentration range: did not result in any stabilization

## CN(C)CCOc1ccc(-c2nc(-c3ccncc3)c(-c3ccc4c(c3)CC/C4=N\O)[nH]2)cc1 [SB590885]
[7]
  increase in the melting temperature: ~6 °C
wild-type B-raf protein
  increase in the melting temperature: 3 °C

## Cn1c(NC[C@@H](N)Cc2ccccc2)nc(-c2ccncc2)c(-c2ccc3ccccc3c2)c1=O [AMG-548]
p38α [4]
  screen outcome (increase of the AlphaScreen signal vs DMSO-only controls): stabilizing hits
p38α [5]; AlphaScreen detection, no inhibitor 46.7±0.7
  apparent Tagg value (average±s.d.): 59.2±0.9 °C
p38α [5]; western blot detection, no inhibitor 48±0.8
  apparent Tagg value (average±s.d.): 60.6±1.0 °C

## Cc1nc2ccc(CN(C)c3ccc(C(=O)N[C@@H](CCC(=O)O)C(=O)O)s3)cc2c(=O)[nH]1 [raltitrexed]
[8]
  change of melting temperature of TS: increased melting temperature
